Laboratory results: patent US20160220569A1, “CDK4/6 Inhibitor Dosage Formulations For The Protection Of Hematopoietic Stem And Progenitor Cells During Chemotherapy” (G1 Therapeutics, Inc., priority 2015, published 2016)
Read-outs that look alike come from different tables or passages of the source.

Test: 14-day oral gavage toxicokinetic study in rats
Type: in vivo
Conditions: rat, plasma, po; for concentration at 0.5 h / concentration at 1 h / concentration at 2 h / concentration at 4 h / concentration at 8 h / concentration at 12 h / concentration at 24 h / concentration at […]: rats; for half-life: read-out: t½ (converted)
Description: Plasma was obtained from blood samples collected from rats in a composite sampling scheme, with 3 samples collected per sex, per dose, at each target collection time, as illustrated in Table 21 to Table 25. Samples were collected from the vehicle control group on Day 1 and Day 14 at 3 hour after administration. […] Blood samples were collected in tubes containing K3EDTA as an anticoagulant and placed on ice until processed to plasma via centrifugation. Samples were stored frozen at −80° C. until shipment to the bioanalytical laboratory for analysis.
The following parameters were determined:
Cmax: Maximum observed plasma concentration (ng/mL).
A value of 0 ng/mL was assigned to all values below the lower limit of quantitation (BLQ, <10.0 ng/mL).
AUC(0-inf): Area under the plasma concentration vs. time curve extrapolated from 0 to infinity (ng*h/mL), calculated as AUC(0-t)+AUC(t-inf) where AUC(t-inf) is calculated as last measurable concentration (CLast) divided by ke, where ke is the elimination rate constant determined by linear regression of the last three analytically measured points on the log plasma concentration vs. time curve. The selection criteria of the data points for inclusion in the calculation of ke required that at least three data points representing the terminal phase (after Tmax) were regressed and that R2≧0.850 when rounded.
CL: Clearance (L/h/kg), calculated as the dose divided by AUC(0-t).
Vd: Volume of distribution (L/kg), calculated as dose divided by the product of ke and AUC(0-inf).
Vdss: Steady state volume of distribution (L/kg), calculated as clearance […] mean residence time, where mean residence time is calculated as the area under the first moment curve divided by AUC(0-t).
t½: Elimination half-life (h), calculated as ln(2)/ke, where ke is the elimination rate constant determined by linear regression. Half-life was defined as not determined if regression criteria (specified in AUC(0-inf) above) were not met.
Cmax/Dose: Normalized Cmax, calculated as Cmax divided by total dose.
AUC/Dose: Normalized AUC, calculated as AUC(0-t) divided by total dose.
ii. Statistical Analysis Mean and standard deviation (SD) were calculated in Watson. Values of BLQ were assigned a value of 0 ng/mL for mean calculations. Concentration values and derived TK parameters were reported to three significant figures.

[1] = female, 30 mg/kg, oral 30 mg/kg, Study Day 1, Female
[2] = female, 30 mg/kg, oral 30 mg/kg, Study Day 14, Female
[3] = male, 2 mg/kg, oral 2 mg/kg, Study Day 1, Male
[4] = male, 2 mg/kg, oral 2 mg/kg, Study Day 14, Male

SMILES: CN1CCN(c2ccc(Nc3ncc4cc5n(c4n3)C3(CCCCC3)CNC5=O)nc2)CC1 [Compound 1, 2′-((5-(4-methylpiperazin-1-yl)pyridin-2-yl)amino)-7′,8′-dihydro-6′H-spiro[cyclohexane-1,9′-pyrazino[1′,2′:1,5]pyrrolo[2,3-d]pyrimidin]-6′-one]
- concentration at 0.5 h (female, 30 mg/kg, Mean Compound 1 Plasma Concentration, oral 30 mg/kg, Day 1, 0.5 h, Female): 2160 ng/mL
- concentration at 1 h (female, 30 mg/kg, Mean Compound 1 Plasma Concentration, oral 30 mg/kg, Day 1, 1 h, Female): 2140 ng/mL
- concentration at 2 h (female, 30 mg/kg, Mean Compound 1 Plasma Concentration, oral 30 mg/kg, Day 1, 2 h, Female): 3090 ng/mL
- concentration at 4 h (female, 30 mg/kg, Mean Compound 1 Plasma Concentration, oral 30 mg/kg, Day 1, 4 h, Female): 2510 ng/mL
- concentration at 8 h (female, 30 mg/kg, Mean Compound 1 Plasma Concentration, oral 30 mg/kg, Day 1, 8 h, Female): 2470 ng/mL
- concentration at 12 h (female, 30 mg/kg, Mean Compound 1 Plasma Concentration, oral 30 mg/kg, Day 1, 12 h, Female): 1940 ng/mL
- concentration at 24 h (female, 30 mg/kg, Mean Compound 1 Plasma Concentration, oral 30 mg/kg, Day 1, 24 h, Female): 284 ng/mL
- concentration at […] (female, 30 mg/kg, Mean Compound 1 Plasma Concentration, oral 30 mg/kg, Day 1, […], Female): 92.9 ng/mL
- concentration at 0.5 h (female, 30 mg/kg, Mean Compound 1 Plasma Concentration, oral 30 mg/kg, Day 14, 0.5 h, Female): 1540 ng/mL
- concentration at 1 h (female, 30 mg/kg, Mean Compound 1 Plasma Concentration, oral 30 mg/kg, Day 14, 1 h, Female): 2230 ng/mL
- concentration at 2 h (female, 30 mg/kg, Mean Compound 1 Plasma Concentration, oral 30 mg/kg, Day 14, 2 h, Female): 2010 ng/mL
- concentration at 4 h (female, 30 mg/kg, Mean Compound 1 Plasma Concentration, oral 30 mg/kg, Day 14, 4 h, Female): 2320 ng/mL
- concentration at 8 h (female, 30 mg/kg, Mean Compound 1 Plasma Concentration, oral 30 mg/kg, Day 14, 8 h, Female): 1960 ng/mL
- concentration at 12 h (female, 30 mg/kg, Mean Compound 1 Plasma Concentration, oral 30 mg/kg, Day 14, 12 h, Female): 2290 ng/mL
- concentration at 24 h (female, 30 mg/kg, Mean Compound 1 Plasma Concentration, oral 30 mg/kg, Day 14, 24 h, Female): 322 ng/mL
- concentration at […] (female, 30 mg/kg, Mean Compound 1 Plasma Concentration, oral 30 mg/kg, Day 14, […], Female): 537 ng/mL
- AUC(0-inf) [1]: 43800 ng·h/mL
- AUC(0-t) [1]: 41800 ng·h/mL
- Cmax [1]: 3090 ng/mL
- Tmax [1]: 2 h
- half-life [1]: 4.92 h
- AUC(0-inf) [2]: 43200 ng·h/mL
- AUC(0-t) [2]: 40600 ng·h/mL
- Cmax [2]: 2320 ng/mL
- Tmax [2]: 4 h
- half-life [2]: 5.56 h
- concentration at 1 h (male, 2 mg/kg, Compound 1 Plasma Concentration, Male, Day 1, 1 h, daily oral 2 mg/kg (Group 7), individual animals): 59.1 ng/mL
- concentration at 2 h (male, 2 mg/kg, Compound 1 Plasma Concentration, Male, Day 1, 2 h, daily oral 2 mg/kg (Group 7), individual animals): 97.4 ng/mL
- concentration at 4 h (male, 2 mg/kg, Compound 1 Plasma Concentration, Male, Day 1, 4 h, daily oral 2 mg/kg (Group 7), individual animals): 122 ng/mL
- concentration at 8 h (male, 2 mg/kg, Compound 1 Plasma Concentration, Male, Day 1, 8 h, daily oral 2 mg/kg (Group 7), individual animals): 99 ng/mL
- concentration at 12 h (male, 2 mg/kg, Compound 1 Plasma Concentration, Male, Day 1, 12 h, daily oral 2 mg/kg (Group 7), individual animals): 51.9 ng/mL
- concentration at 0.5 h (male, 2 mg/kg, Compound 1 Plasma Concentration, Male, Day 14, 0.5 h, daily oral 2 mg/kg (Group 7), individual animals): 36.3 ng/mL
- concentration at 2 h (male, 2 mg/kg, Compound 1 Plasma Concentration, Male, Day 14, 2 h, daily oral 2 mg/kg (Group 7), individual animals): 84.3 ng/mL
- concentration at 4 h (male, 2 mg/kg, Compound 1 Plasma Concentration, Male, Day 14, 4 h, daily oral 2 mg/kg (Group 7), individual animals): 117 ng/mL
- concentration at 8 h (male, 2 mg/kg, Compound 1 Plasma Concentration, Male, Day 14, 8 h, daily oral 2 mg/kg (Group 7), individual animals): 68.7 ng/mL
- concentration at 12 h (male, 2 mg/kg, Compound 1 Plasma Concentration, Male, Day 14, 12 h, daily oral 2 mg/kg (Group 7), individual animals): 65.7 ng/mL
- concentration at 0.5 h (male, 2 mg/kg, Mean Compound 1 Plasma Concentration, oral 2 mg/kg, Day 1, 0.5 h, Male): 57.7 ng/mL
- concentration at 1 h (male, 2 mg/kg, Mean Compound 1 Plasma Concentration, oral 2 mg/kg, Day 1, 1 h, Male): 57.1 ng/mL
- concentration at 2 h (male, 2 mg/kg, Mean Compound 1 Plasma Concentration, oral 2 mg/kg, Day 1, 2 h, Male): 102 ng/mL
- concentration at 8 h (male, 2 mg/kg, Mean Compound 1 Plasma Concentration, oral 2 mg/kg, Day 1, 8 h, Male): 90.4 ng/mL
- concentration at 12 h (male, 2 mg/kg, Mean Compound 1 Plasma Concentration, oral 2 mg/kg, Day 1, 12 h, Male): 53.7 ng/mL
- concentration at 0.5 h (male, 2 mg/kg, Mean Compound 1 Plasma Concentration, oral 2 mg/kg, Day 14, 0.5 h, Male): 47 ng/mL
- concentration at 1 h (male, 2 mg/kg, Mean Compound 1 Plasma Concentration, oral 2 mg/kg, Day 14, 1 h, Male): 57.1 ng/mL
- concentration at 2 h (male, 2 mg/kg, Mean Compound 1 Plasma Concentration, oral 2 mg/kg, Day 14, 2 h, Male): 94.9 ng/mL
- concentration at 4 h (male, 2 mg/kg, Mean Compound 1 Plasma Concentration, oral 2 mg/kg, Day 14, 4 h, Male): 116 ng/mL
- concentration at 8 h (male, 2 mg/kg, Mean Compound 1 Plasma Concentration, oral 2 mg/kg, Day 14, 8 h, Male): 94.2 ng/mL
- concentration at 12 h (male, 2 mg/kg, Mean Compound 1 Plasma Concentration, oral 2 mg/kg, Day 14, 12 h, Male): 54 ng/mL
- AUC(0-t) [3]: 1390 ng·h/mL
- Cmax [3]: 126 ng/mL
- Tmax [3]: 4 h
- half-life [3]: 5.32 h
- AUC(0-t) [4]: 1360 ng·h/mL
- Cmax [4]: 116 ng/mL
- Tmax [4]: 4 h
- half-life [4]: 4.98 h
